Laboratory results as given in patent US12583895B2, “Polypeptides for restoring endothelial function and methods of use thereof” (Vanderbilt University, priority 2019, dated 2026).
Entries after “also recorded” stand apart in the source; their conditions may differ. Non-standard residues stand in square brackets, D forms with d. No end group written: not given here. pS = N[C@@H](COP(=O)(O)O)C(=O)O

Legend:
rat aorta [1] = assay: Endothelial-dependent relaxation of rat aorta after endoplasmic reticulum stress (tunicamycin) injury; assay type: cell-based; conditions: NiPp 100 and 500 μM, 2 hours, room temperature
Method: (§1) Freshly isolated rat aorta was treated with tunicamycin (TM) to induce injury in the absence or presence of NiPp (100 and 500 μM) for 2 hours at room temperature. To determine the effect of injury on endothelial function, phenylephrine (PE)-precontracted tissues were treated with carbachol (CCH; 10^−8 to 10^−5M) and the percent relaxation was determined as a change to the maximal PE-induced contraction. Data are reported as mean responses±standard deviation. n=6. *p<0.05, two-way ANOVA.
Muscle bath studies. Tissue rings were suspended in bicarbonate buffer in the muscle bath at 37° C., equilibrated with 95% O2/5% CO2 at 37° C. for 1 hour. Rings were manually stretched to 3 grams of tension, followed by a resting tension of 1 gram for an additional 1 hour to produce a maximal force-tension relationship. […] Relaxation was calculated as percent change in stress compared to the maximal PE-induced contraction (set as 100%).
as §1, with “Data are reported as mean responses±standard deviation. n=6. *p<0.05, two-way ANOVA.” left out

rat aorta [2] = assay: Endothelial-dependent relaxation of rat aorta after acidosis (normal saline) injury; assay type: cell-based; conditions: NiPp 500 μM 30 min pretreatment in PL, then NS with NiPp 500 μM 2 h
Method: Freshly isolated rat aorta (RA) was cut into rings and then pretreated in the absence or presence of NiPp (500 μM) in PL for 30 min. Tissue rings were then transferred to normal saline (NS) to induce injury in the absence or presence of NiPp (500 μM) and continued incubation for 2 h at room temperature. After treatments, RA were suspended in the muscle bath, contracted with PE and then treated with escalating doses of carbachol (CCH; 10^−8 to 10^−5 M). The percent relaxation was determined as a change to the maximal PE-induced contraction. n=5-7 rats. *p<0.05 in two-way ANOVA with Tukey post-test. NiPp restores NS-induced endothelial dysfunction in RA.
Tissue rings were then transferred to NS and continued incubation in the absence or presence of NiPp (500 μM) for 2 h at room temperature. Control rings (Ctrl) were incubated in PL for 2.5 h. […] The percent relaxation was determined as a change to the maximal PE-induced contraction. […] Data are expressed as mean±SD. […]
This produced the maximal force tension relationship as previously described. […] Contractile responses were defined by stress, calculated using force generated by tissues as follows: stress (×10^5 N/m^2)=force (g)×0.0987/area, where area=wet weight (mg)/at maximal length (mm)]/1.055.
Relaxation was calculated as percent change in stress compared to the maximal PE-induced contraction (set as 100%). […]

Substance: YARAAARQARASPAARRA(pS)AILPG (YARAAARQARASPAARRA[pS]AILPG) [NiPp, Cell-permeant phosphopeptide mimetic of Niban: transduction domain … conjugated to the region surrounding serine 602 of Niban]
- endothelial function (percent relaxation to carbachol) after tunicamycin injury (rat aorta [1]): restored
- endothelial function (percent relaxation to carbachol) after acidosis (normal saline) injury (rat aorta [2]): improved; also recorded: restores
